Laboratory results taken from patent US9540299B2, “MTOR-independent activator of TFEB for autophagy enhancement and uses thereof” (Hong Kong Baptist University, priority 2015, dated 2017).

Columns and labels:
[1] = target: T1, MTOR-TFEB-YWHA interaction (Homo sapiens, UniProt P19484); experiment: Co-immunoprecipitation of MTOR and YWHA with Flag-TFEB in Hela cells; type: cell-based; conditions: Hela 3×Flag-TFEB cells, 1 μM, 12 h
T1 construct: expressed in transfected cells; host or cells: HeLa cells stably expressing 3×Flag-TFEB; MTOR and YWHA are endogenous
T1 sequence (P19484 1-476): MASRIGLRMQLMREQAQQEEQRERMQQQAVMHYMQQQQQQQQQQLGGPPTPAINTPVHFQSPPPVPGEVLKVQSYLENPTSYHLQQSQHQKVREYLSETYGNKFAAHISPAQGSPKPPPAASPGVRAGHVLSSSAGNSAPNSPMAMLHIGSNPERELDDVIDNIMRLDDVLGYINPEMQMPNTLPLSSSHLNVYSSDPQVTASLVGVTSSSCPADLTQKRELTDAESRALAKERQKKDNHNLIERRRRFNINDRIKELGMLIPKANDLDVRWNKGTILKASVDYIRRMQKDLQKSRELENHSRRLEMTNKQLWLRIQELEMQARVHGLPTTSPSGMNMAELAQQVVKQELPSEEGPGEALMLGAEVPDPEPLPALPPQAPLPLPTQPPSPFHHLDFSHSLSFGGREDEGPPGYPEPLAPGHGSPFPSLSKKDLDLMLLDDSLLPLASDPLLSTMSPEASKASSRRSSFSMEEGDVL
Experimental: Hela cells stably expressing 3×Flag-TFEB are treated with C1 (1 μM) for 12 h. Endogenous MTOR and YWHA are co-immunoprecipitated with Flag-TFEB. Western blots and levels of immunoprecipitated MTOR (FIG. 5A) and YWHA (FIG. 5B) normalized to their corresponding levels in whole cell lysates (WCL). Data are presented as the mean±SD from three independent experiments. *p<0.05 vs. the control. WB—western blot and IP—immunoprecipitation. Cells are lysed on ice in 1× Lysis Buffer (9803, Life Technologies) with complete protease inhibitor mixture (04693124001, Roche Applied Science). Animal tissues are homogenized in nine volumes of ice-cold PBS supplemented with protease inhibitors. Cytosolic and nuclear fractions are isolated using protocols similar to those described previously. Anti-Flag or TFEB antibody is added to the whole cell lysates and Dynabeads® Protein G (10003D, Life Technologies) is used for immunoprecipitation. Proteins are separated by 10-15% SDS-PAGE, transferred, and blotted with the antibodies described. The blots are then incubated with secondary antibodies or the Clean-Blot IP Detection Reagent (21230, Thermo Scientific) at room temperature for 1 h. The protein signals are detected by ECL kit (32106, Pierce) and quantified using ImageJ software. Hela cells stably expressing 3×Flag-TFEB are treated with C1 (1 μM) for 12 h. […]

[2] = rat, in vivo, po
Experimental: All animal care and procedures are approved by the Hong Kong Baptist University Committee on the Use of Human and Animal Subjects in Teaching and Research. Adult male Sprague-Dawley (SD) rats weighted 350-400 g are maintained on ad libitum food and water with a 12-hour light/dark cycle in a controlled environment. For short-term treatment, rats (n=6 per group) are orally administered by gavage with C1 (10 mg/kg and 25 mg/kg per day) or vehicle (1% sodium carbonyl methylcellulose (CMC-Na)) for 24 h. For chronic treatment, C1 (10 mg/kg per day) is given by gavage to rats for 21 days. At the end of each treatment, an additional dosage of C1 is given for 6 h before the rats are killed. Livers and major brain regions dissected are snap-frozen in liquid nitrogen.
The average concentration of C1 in brain tissues is 0.26±0.063 μg/g determined by HPLC after oral administration of C1 (10 mg/kg) for 6 h.
Rats receive oral administration of C1 (10 mg/kg) for 21 days. Another dose of C1 is given for 6 h and the average concentration of C1 in brain tissues is 0.849±0.302 μg/g. Then the autophagy markers in the livers and brains are analyzed. Chronic C1 treatment increases the levels of LC3-II in the livers (FIGS. 11 A and B). […] During the treatment procedure, no changes in body weight or behavior abnormalities are observed.

With COc1ccccc1/C=C/C(=O)/C=C/c1ccccc1OC [C1, 1,5-bis(2-methoxyphenyl)penta-1,4-dien-3-one] the “MTOR and YWHA coimmunoprecipitated with Flag-TFEB compared with control” value [1] was “decreased”, the “levels of endogenous MTOR and YWHA” value [1] was “does not affect” and the “passage of the blood-brain barrier (BBB)” value [2] was “can pass”.
